Test results taken from patent US5374623A, “Cysteine protease inhibitors effective for in vivo use” (Prototek, Inc., priority 1992, dated 1994).

Columns and labels:
[1] = tested on: 45Ca2+-labelled bones (calvaria) of neonatal mice; experiment: Parathyroid hormone-stimulated 45Ca2+ release from cultured mouse calvaria; format: cell-based; settings: 24 hour period, PTH-stimulated
Description: (§1) Treatment of Osteo Arthritis with Mu-Phe-HPhe-O-Ph. ^45 Ca^2+ -labelled bones (calvaria) of neonatal mice were maintained in culture. The effect of the test compound on the rate of parathyroid hormone-stimulated ^45 Ca^2+ release was measured over a 24 hour period. An inhibitor of bone resorption (at maximal concentrations) would be expected to inhibit this rate by approximately 70%. The nature of the residual, uninhibitable ^45 Ca^2+ -release is not known but could represent chemical exchange of ^45 Ca^2+ with the medium. Mu-Phe-HPhe-O-Ph was dissolved in dimethylsulphoxide which was present in the incubation at concentrations <0.1%.
as §1, with “Mu-Leu-HPhe-O-Ph.” for “Mu-Phe-HPhe-O-Ph.”, “Mu-Leu-HPhe-O-Ph” for “Mu-Phe-HPhe-O-Ph”
as §1, with “Mu-Tyr(OMe)-HPhe-O-Ph.” for “Mu-Phe-HPhe-O-Ph.”, “Mu-Tyr(OMe)-HPhe-O-Ph” for “Mu-Phe-HPhe-O-Ph”
as §1, with “Z-Phe-Ala-O-Ph.” for “Mu-Phe-HPhe-O-Ph.”, “Z-Phe-Ala-O-Ph” for “Mu-Phe-HPhe-O-Ph”
as §1, with “Mu-Tyr(OMe)-HPhe-O-Ph.” for “Mu-Phe-HPhe-O-Ph.”, “labelled” for “-labelled”, “Mu-Tyr(OMe)-HPhe-O-Ph” for “Mu-Phe-HPhe-O-Ph”

[2] = tested on: bone resorption; experiment: In vivo bone resorption by urinary 14C-tetracycline excretion in rats
Description: Treatment of Osteo Arthritis with Mu-Phe-HPhe-O-Ph. The skeletons of young growing rats were radioactively labelled by injections with ^14 C-tetracycline over a 10 day period. The amount of bone resorption was then determined each day as the amount of radioactivity excreted in the urine. After 10 days of control excretion, test compounds were administered for three days subcutaneously and their effects on the daily excretion of tetracycline were determined. Tested compounds were dissolved in DMSO/PEG at a concentration of 25 mg/ml and were injected once per day subcutaneously in a volume of 2 ml/kg. Treatment of Osteo Arthritis with Mu-Leu-HPhe-O-Ph. The skeletons of young growing rats were radioactively labelled by injections with ^14 C-tetracycline over a 10 day period. The amount of bone resorption was then determined each day as the amount of radioactivity excreted in the urine. After 10 days of control excretion, test compounds were administered for three days subcutaneously and their effects on the daily excretion of tetracycline were determined. Tested compounds were dissolved in DMSO/PEG at a concentration of 25 mg/ml and were injected once per day subcutaneously in a volume of 2 ml/kg.

SMILES: O=C(O)Cc1ccccc1OCC(=O)[C@H](CCc1ccccc1)NC(=O)[C@H](Cc1ccccc1)NC(=O)N1CCOCC1 [Mu-Phe-HPhe-O-Ph, (4-morpholinylcarbonyl)-L-phenylalanyl-L-homophenylalanyl-(2-carboxymethyl)phenoxymethyl ketone]
- inhibition of the rate of 45Ca2+-release ([1]; 1 μm inhibitor): 50%
- additional inhibition of the rate of 45Ca2+-release ([1]; 100 μm inhibitor): 20%
- inhibition of bone resorption in vivo as measured by tetracycline excretion ([2]; subcutaneous once per day for three days, 25 mg/ml in DMSO/PEG, 2 ml/kg): as great as that of a maximal dose of calcitonin
- time of maximum effect after dosing commenced ([2]; subcutaneous once per day, 25 mg/ml, 2 ml/kg): 24 h
- findings at the sites of injection at end of experiment ([2]; subcutaneous, DMSO/PEG, three days, histology: inflammation of subcutaneous fat, tissue necrosis): lesions were visible at the sits of injection
